Data reported in patent US20140080128A1, “METHOD FOR DETERMINING WHETHER A SUBJECT IS AT RISK OF HAVING OR DEVELOPING A CHRONIC KIDNEY DISEASE” (Institut National de Ia Sante et de la Recherche Medicale …, priority 2011, published 2014).

Key:
Assay type in all cases: in vivo, Sprague-Dawley rats
[1] = system: periostin, vimentin expression in renal cortex; assay: Real time quantitative PCR (and immunoblotting) of markers in renal cortex of L-NAME rat model; settings: for periostin mRNA up-regulation in kidney (RT-qPCR): rats, versus baseline
Method: Male Sprague-Dawley rats, weighing 250 g, were maintained on a normal-salt diet and had free access to chow and tap water. NO synthesis was inhibited by L-NAME (orally, 15 mg·kg-1·day-1). […] When proteinuria exceeded 1 g/mmol creatinine (after 5 or 6 weeks), a group of animals was killed to allow estimations of renal hemodynamics and morphological parameters just before the beginning of therapy (LN 6w group, n=10). The remaining animals were divided into two subgroups for an additional experimental period of 4 weeks: in the first subgroup, L-NAME was given alone (LN 10w group, n=12); in the second subgroup treatment was accompanied by the administration of an AT1 receptor antagonist (Losartan, orally 30 mg·kg-1·day-1, Merck Sharp and Dohme-Chibret). At the end of Losartan treatment, we separated the animals of the second group in two subgroups: animals with normal creatininemia below 50 μmol/l (LN reg n=14) and animals with a creatininemia above 70 μmol/l (LN no reg n=15). The doses of the drugs were based on pilot experiments and previously published studies. Control animals were sacrificed at 6 and 10 week. Since control animals gave similar results for all measured parameters, pooled data are presented (C group, n=8). Others animals received Losartan during 4 weeks as additional control group (LOS group, n=3). All protocols and treatments were performed with the approval of the French government ethics committee. We extracted RNA from the renal cortex and the abdominal aorta using TRIzol solution (Life Technologies BRL, Gaithersburg, Md.). RNA quality was checked by measuring the ratio of optical densities at 260 and 280 nm and residual genomic DNA was removed by DNase I treatment for 30 min at 37° C. (Fermentas). We used reverse transcription with Revert Aid H minus First Strand DNA Synthesis kit (Fermentas) to convert 1 μg RNA into cDNA, which was then amplified by PCR using a LightCycler 480 (Roche Diagnostic) using SYBR Green (Fast Start DNA Master SYBRGreen I; Roche Applied Science, Roche Diagnostic), specific primers for POST, Col3A1, ESel, Vimentin, VCAM-1 and hypoxanthine-guanine phosphoribosyltransferase (HPRT) as housekeeping gene under the following conditions: 95° C. for 5 min, and 45 cycles at 95° C. for 15 s and 60° C. for 15 s, then 72° C. for 15 s. Specific primers were designed by Universal Probe Library system (UPL, Roche Applied Science). To normalize the Q-PCR results we used Roche LightCycler 2.0 software (Roche Diagnostic). We expressed results as 2-[…], where Cp is the cycle threshold number. We analyzed dissociation curves after each run for each amplicon to access the specificity of quantification when using SYBR Green. 25 μg of protein extracts obtained by RIPA buffer lysis of renal cortex were fractionated by SDS-PAGE NuPAGE 4/12% gels (Invitrogen) under reducing conditions using an XCell SureLockTM Mini-Cell (NuPAGE, Invitrogen, San Diego, Calif., USA) as described by the manufacturer and transferred onto a nitrocellulose membrane (Immobilon-P, Millipore, Billerica, Mass., USA) prior to detection of the POST (Biovendor) or β-actin (Imgenex, Clinisciences, France) protein with a specific rabbit polyclonal primary Ab (dilution 1/1000 and 1/5000 respectively) and a peroxidase-labelled IgG anti-rabbit secondary Ab (dilution 1/4000). The membrane was detected by enhanced chemiluminescence (ECL)-plus kit (Amersham Biosciences, Piscataway, N.J., USA) on autoradiography films (Fuji).

[2] = system: Hypertension-Induced Renal Disease Rat Model (L-NAME); assay: Renal hemodynamics (arterial pressure, renal blood flow) in L-NAME hypertension-induced renal disease rat model; settings: for MAP (mean arterial pressure): L-NAME orally 15 mg/kg/day
Method: (§1) Male Sprague-Dawley rats, weighing 250 g, were maintained on a normal-salt diet and had free access to chow and tap water. NO synthesis was inhibited by L-NAME (orally, 15 mg·kg-1·day-1). […] When proteinuria exceeded 1 g/mmol creatinine (after 5 or 6 weeks), a group of animals was killed to allow estimations of renal hemodynamics and morphological parameters just before the beginning of therapy (LN 6w group, n=10). The remaining animals were divided into two subgroups for an additional experimental period of 4 weeks: in the first subgroup, L-NAME was given alone (LN 10w group, n=12); in the second subgroup treatment was accompanied by the administration of an AT1 receptor antagonist (Losartan, orally 30 mg·kg-1·day-1, Merck Sharp and Dohme-Chibret). At the end of Losartan treatment, we separated the animals of the second group in two subgroups: animals with normal creatininemia below 50 μmol/l (LN reg n=14) and animals with a creatininemia above 70 μmol/l (LN no reg n=15). The doses of the drugs were based on pilot experiments and previously published studies. Control animals were sacrificed at 6 and 10 week. Since control animals gave similar results for all measured parameters, pooled data are presented (C group, n=8). Others animals received Losartan during 4 weeks as additional control group (LOS group, n=3). All protocols and treatments were performed with the approval of the French government ethics committee.
After anesthesia by pentobarbital sodium (50-60 mg/kg body wt ip, Nembutal, Abbott, Chicago, Ill.), animals were placed on a servo-controlled table kept at 37° C. and the trachea was cannulated to facilitate respiration. The left femoral artery was catheterized for measurement of arterial pressure, and a femoral venous catheter was used for infusion of volume replacement. An ultrasound transit-time flow probe (1RB, Transonic, Ithaca, N.Y.) was placed around the left renal artery. Bovine serum albumin (4.7 g/dl of saline solution) was infused initially at 50 μl/min to replace surgical losses, and then at 10 μl/min for maintenance. Arterial pressure was measured via a pressure transducer (Statham P23 DB); RBF was measured by a flowmeter (T 420, low-pass filter, 40 Hz, Transonic). RBF values were controlled for zero offset determined at the end of an experiment after cardiac arrest. Data were recorded, stored, and analyzed using a DataTranslation analog-to-digital converter and the IOX software (EMKA Technologies, Paris, France).

[3] = system: CD3+ lymphocytes in renal cortex; assay: Immunohistochemistry for CD3 in kidney of L-NAME rat model; settings: rats, after 6 and 10 weeks LNAME treatment
Method: as §1, with “[…] Quantification of CD3-positive cells was” for “Others animals received Losartan during 4 weeks as additional control group (LOS group, n=3). All protocols and treatments were”, “using Olympus analysis software.” for “with the approval of the French government ethics committee.”

[4] = system: Hypertension-Induced Renal Disease Rat Model (L-NAME); assay: Urinary protein excretion and plasma creatinine in L-NAME rat model
Method: as §1, with “committee. Urine samples were collected for a 4-h period. Urinary protein concentration was normalized to creatinine concentration, and values were expressed as grams protein per millimole creatinine. Blood samples were withdrawn on the last day of the study, and plasma creatinine […] was measured by automated Jaffe's method.” for “committee.”

[5] = all losartan-treated groups compared to L-NAME 6w and 10w groups

| Compound | periostin mRNA up-regulation in kidney (RT-qPCR) ([1]; after 6 weeks LNAME) [fold] | periostin mRNA up-regulation in kidney (RT-qPCR) ([1]; after 10 weeks LNAME) [fold] | MAP (mean arterial pressure) ([2]; rats, 6 weeks treatment) [mmHg] | MAP (mean arterial pressure) ([2]; rats, 10 weeks treatment) [mmHg] | renal blood flow ([2]; rats, from 6 weeks LNAME treatment onwards) | CD3+ lymphocyte count [3] | proteinuria ([4]; rats, L-NAME, week 6) [g/mmol creatininuria] | creatininemia ([4]; rats, L-NAME, week 10) [µmol/L] | periostin expression in renal cortex ([1]; L-NAME+losartan 4 weeks, NOREG group) | periostin mRNA and protein expression in renal cortex ([1]; L-NAME+losartan 4 weeks, REG group) | vimentin mRNA expression in renal cortex ([1]; after initiation of losartan in L-NAME rats, irrespective of the REG/NOREG group) | renal hemodynamic alterations [2, 5] | creatininemia ([4]; after 4 weeks Losartan (30 mg/kg/day orally)+LNAME, "No Regression" (NOREG) group) [µmol/L] | creatininemia ([4]; after 4 weeks Losartan (30 mg/kg/day orally)+LNAME, "Regression" (REG) group) [µmol/L] | proteinuria [4, 5] |
| --- | --- | --- | --- | --- | --- | --- | --- | --- | --- | --- | --- | --- | --- | --- | --- |
| COC(=O)[C@@H](N)CCCNC(=N)N[N+](=O)[O-] [LNAME, L-NAME] | 13 | 18 | 211±7 | 212±5 | striking reduction | strongly increased | 1.3±0.2 | 100 ± 14 |  |  |  |  |  |  |  |
| CCCCc1nc(Cl)c(CO)n1Cc1ccc(-c2ccccc2-c2nn[nH]n2)cc1 [Losartan] |  |  |  |  |  |  |  |  | persistent increase | significantly blunted | sharp decrease | ameliorated | 76 ± 3 | 50 ± 2 | ameliorated |
